Assay results taken from patent publication US11952392B2, “Arginase inhibitors and methods of use thereof” (AstraZeneca AB, priority 2018, dated 2024).

Assay: Gravity vapor sorption (GVS) analysis
Assay type: physicochemical
[1] = at relative humidity (RH) of 80%

CC(C)[C@H](N)C(=O)N[C@H]1CN[C@]2(CCCCB(O)OC2=O)C1 [Example 1, (S)-2-amino-N-((3R,5R)-8-hydroxy-6-oxo-7-oxa-1-aza-8-boraspiro[4.7]dodecan-3-yl)-3-methylbutanamide]
RH after which the solid starts to deliquesce (GVS): > 80 % RH
water absorbed (GVS) (at relative humidity (RH) of 70%): less than 2%

CC(C)[C@@H]1NC(C)(C)N([C@H]2CN[C@]3(CCCCB(O)OC3=O)C2)C1=O [Example 2, (3R,5R)-8-hydroxy-3-((S)-4-isopropyl-2,2-dimethyl-5-oxoimidazolidin-1-yl)-7-oxa-1-aza-8-boraspiro[4.7]dodecan-6-one]
water absorbed (GVS) [1]: less than 2%

CC(C)[C@H](N)C(=O)N[C@H]1CN[C@]2(CCCCB(O)OC2=O)C1 [Example 3, (S)-2-amino-N-((3R,5R)-8-hydroxy-6-oxo-7-oxa-1-aza-8-boraspiro[4.7]dodecan-3-yl)-3-methylbutanamide]
water absorbed (GVS) [1]: less than 2%
